Experimental data as given in patent publication US5972907A, “Synthetic core 2-like branched structures containing GalNAc-lewis^x and Neu5Acα2-3Galβ1-3GalNAc sequences as novel ligands for selectins” (Health Research, Inc., priority 1997, dated 1999).

How the values were obtained:
P-Selectin [1] = target: T1, P-Selectin (Homo sapiens, UniProt P16109); assay: ELISA inhibition of recombinant P-selectin binding to immobilized SLe^x; conditions: for IC50: recombinant selectin, immobilized SLe^x, ELISA, mean of 3 determinations, read-out: IC50 Values Against SLe^x, P-Selectin
T1 sequence (P16109 42-830): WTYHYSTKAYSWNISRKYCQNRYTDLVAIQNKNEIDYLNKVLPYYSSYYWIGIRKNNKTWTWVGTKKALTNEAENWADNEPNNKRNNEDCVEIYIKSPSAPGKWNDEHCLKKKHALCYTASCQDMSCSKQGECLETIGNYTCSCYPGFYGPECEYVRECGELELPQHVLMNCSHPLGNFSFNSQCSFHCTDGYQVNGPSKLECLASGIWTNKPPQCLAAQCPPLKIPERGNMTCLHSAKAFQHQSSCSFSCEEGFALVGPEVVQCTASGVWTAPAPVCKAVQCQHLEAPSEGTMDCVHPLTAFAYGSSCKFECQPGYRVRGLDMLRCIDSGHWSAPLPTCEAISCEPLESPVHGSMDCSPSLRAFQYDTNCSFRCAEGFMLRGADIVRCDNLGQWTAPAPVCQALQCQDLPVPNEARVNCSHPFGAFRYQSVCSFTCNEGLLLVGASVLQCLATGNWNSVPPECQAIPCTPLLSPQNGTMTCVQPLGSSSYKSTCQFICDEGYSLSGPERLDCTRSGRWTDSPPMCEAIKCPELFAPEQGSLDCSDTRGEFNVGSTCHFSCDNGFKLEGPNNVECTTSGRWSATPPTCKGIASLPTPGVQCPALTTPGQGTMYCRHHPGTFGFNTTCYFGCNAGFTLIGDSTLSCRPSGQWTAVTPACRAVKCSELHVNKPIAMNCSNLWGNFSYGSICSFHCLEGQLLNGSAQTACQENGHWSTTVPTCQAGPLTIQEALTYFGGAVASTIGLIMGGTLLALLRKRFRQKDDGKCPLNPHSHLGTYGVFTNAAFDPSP
Protocol: (§1) Relative Inhibitory Properties of Branched Chains Including Neu5Ac and/or GalNAcLe^x Against Recombinant Selectins Binding to Immobilized SLe^x
(§2) ELISA inhibition studies were done as previously reported conditions. Ic50 values against immobilized SLe^x are the mean values of 3 determinations and were calculated according to published methodology.

L-Selectin [2] = target: T2, L-Selectin (Homo sapiens, UniProt P14151); assay: ELISA inhibition of recombinant L-selectin binding to immobilized SLe^x; conditions: mean of 3 determinations, read-out: IC50 Values Against SLe^x, L-Selectin
T2 sequence (P14151 39-372): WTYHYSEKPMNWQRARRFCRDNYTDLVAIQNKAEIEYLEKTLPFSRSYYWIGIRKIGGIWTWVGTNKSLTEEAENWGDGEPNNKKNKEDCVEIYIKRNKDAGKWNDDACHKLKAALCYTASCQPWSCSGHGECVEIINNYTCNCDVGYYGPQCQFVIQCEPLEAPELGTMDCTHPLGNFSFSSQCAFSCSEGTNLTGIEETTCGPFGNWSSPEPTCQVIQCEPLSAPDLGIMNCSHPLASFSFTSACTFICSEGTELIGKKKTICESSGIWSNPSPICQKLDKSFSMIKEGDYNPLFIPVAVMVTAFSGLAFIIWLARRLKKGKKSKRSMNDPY
Protocol: as §1, §2

E-Selectin [3] = target: T3, E-Selectin (Homo sapiens, UniProt P16581); assay: ELISA inhibition of recombinant E-selectin binding to immobilized SLe^x; conditions: mean of 3 determinations, read-out: IC50 Values Against SLe^x, E-Selectin
T3 sequence (P16581 22-610): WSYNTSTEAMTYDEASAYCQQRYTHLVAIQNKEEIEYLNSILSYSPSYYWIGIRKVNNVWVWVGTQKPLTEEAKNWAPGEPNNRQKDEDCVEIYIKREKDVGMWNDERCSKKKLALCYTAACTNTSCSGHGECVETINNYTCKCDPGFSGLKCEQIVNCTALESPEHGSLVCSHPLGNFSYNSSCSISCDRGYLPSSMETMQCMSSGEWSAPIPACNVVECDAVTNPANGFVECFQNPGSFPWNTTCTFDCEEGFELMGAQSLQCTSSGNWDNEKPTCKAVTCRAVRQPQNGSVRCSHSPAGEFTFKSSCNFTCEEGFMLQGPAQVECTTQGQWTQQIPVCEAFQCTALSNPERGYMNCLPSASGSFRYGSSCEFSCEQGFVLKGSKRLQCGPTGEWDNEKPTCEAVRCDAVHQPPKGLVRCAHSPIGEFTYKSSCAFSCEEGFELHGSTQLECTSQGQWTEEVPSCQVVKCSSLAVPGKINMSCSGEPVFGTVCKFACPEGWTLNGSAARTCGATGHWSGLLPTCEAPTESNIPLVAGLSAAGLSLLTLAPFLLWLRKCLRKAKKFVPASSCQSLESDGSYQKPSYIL
Protocol: as §1, §2

P-Selectin [4] = target: T1, P-Selectin; assay: Other studies of binding (unspecified; P-selectin context); conditions: no details given
L-Selectin [5] = target: T2, L-Selectin; conditions: cited from earlier work; for affinity for L-selectin: recent study / inhibition studies of Scudder et al.
E-Selectin [6] = target: T3, E-Selectin; conditions: isolated from human cell produced Protein C; cited from earlier work

Molecule	IC50 (P-Selectin [1]) [µM]	IC50 (L-Selectin [2]) [µM]	IC50 (E-Selectin [3]) [µM]	further results
CO[C@@H]1O[C@H](CO)[C@@H](O[C@@H]2O[C@H](CO)[C@H](O)[C@H](O)[C@H]2NC(C)=O)[C@H](O[C@@H]2O[C@@H](C)[C@@H](O)[C@@H](O)[C@@H]2O)[C@H]1NC(C)=O [Compound 8b]	400	300	> 500	–
CO[C@H]1O[C@H](CO[C@@H]2O[C@H](CO)[C@@H](O[C@@H]3O[C@H](CO)[C@H](O)[C@H](O)[C@H]3NC(C)=O)[C@H](O[C@@H]3O[C@@H](C)[C@@H](O)[C@@H](O)[C@@H]3O)[C@H]2NC(C)=O)[C@H](O)[C@H](O[C@@H]2O[C@H](CO)[C@H](O)[C@H](O)[C@H]2O)[C@H]1NC(C)=O [Compound 14, Methyl O-(2-acetamido-2-deoxy-β-D-galactopyranosyl)-(1→4)-O-[(α-L-fucopyranosyl)-(1→3)-O]-(2-acetamido-2-deoxy-β-D-glucopyranosyl)-(1→6)-O-[(β-D-galactopyranosyl)-(1→3)-O]-2-acetamido-2-deoxy-α-D-galactopyranoside]	400	300	> 500	–
CO[C@H]1O[C@H](CO[C@@H]2O[C@H](CO)[C@@H](O[C@@H]3O[C@H](CO)[C@H](O)[C@H](O)[C@H]3NC(C)=O)[C@H](O[C@@H]3O[C@@H](C)[C@@H](O)[C@@H](O)[C@@H]3O)[C@H]2NC(C)=O)[C@H](O)[C@H](O[C@@H]2O[C@H](CO)[C@H](O)[C@H](O[C@]3(C(=O)O)C[C@H](O)[C@@H](NC(C)=O)[C@H]([C@H](O)[C@H](O)CO)O3)[C@H]2O)[C@H]1NC(C)=O [Compound 16]	85	105	> 500	–
CO[C@H]1O[C@H](CO[C@@H]2O[C@H](CO)[C@@H](O[C@@H]3O[C@H](CO)[C@H](O)[C@H](O)[C@H]3NC(C)=O)[C@H](O[C@@H]3O[C@@H](C)[C@@H](O)[C@@H](O)[C@@H]3O)[C@H]2NC(C)=O)[C@H](O)[C@H](O[C@@H]2O[C@H](CO)[C@H](O)[C@H](OS(=O)(=O)O)[C@H]2O)[C@H]1NC(C)=O [Compound 19]	> 500	500	> 500	binding ability relative to sialyl Lewis^x for P-selectin (P-Selectin [1]; compared with sialyl Lewis^x): about six; binding in other studies (P-Selectin [4]): even greater binding
COC1O[C@H](CO)[C@@H](O[C@@H]2O[C@H](COS(=O)(=O)O)[C@H](O)[C@H](O[C@]3(C(=O)O)C[C@H](O)[C@@H](NC(C)=O)[C@H]([C@H](O)[C@H](O)CO)O3)[C@H]2O)[C@H](O[C@@H]2O[C@@H](C)[C@@H](O)[C@@H](O)[C@@H]2O)[C@H]1NC(C)=O (stereo partly shown) [NeuAcα2→3SE-6 Galβ1→4(Fucα1→3)GlcNAcOMe]	–	–	–	affinity for L-selectin (L-Selectin [5]): lacked a high affinity; ligand quality for L-selectin (L-Selectin [5]; recent study): not a superior ligand
GalNAcβ1→4(Fucα1→3)GlcNAcβ1→Manα1→3/6Manβ1→4GlcNAcβ1→4GlcNAc	–	–	–	inhibition of E-selectin (E-Selectin [6]): potent inhibitor
NeuAcα2→3Galβ1→4(Fucα1→3)SE-3GlcNAcβ1→3Gal	–	–	–	affinity for L-selectin (L-Selectin [5]): lacked a high affinity
sialyl Lewis^x [reference compound]	–	600	–	–
